# System: 556581-035-R-J1-PDC complex spheroid growth
# Test: Anticancer human tumor 556581-035-R-J1-PDC patient-derived ovarian carcinoma cell line growth inhibition [AhR]
# Conditions: for IC50: curve of first compound; for viability, T/C: stronger effect = lower value
# Procedure, shortened: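 Agents were dosed in half-log steps down from roughly clinical Cmax, or from 10 microM where Cmax was unknown, alone and with AhR antagonists. Read-out: percent test/control growth of tumor spheroids containing HUVEC and MSC stromal cells.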
# [1] = second compound 0.1 µM, first compound 0.0316 µM
# [2] = second compound 0.1 µM, first compound 0.1 µM
# [3] = second compound 0.1 µM, first compound 0.316 µM
# [4] = second compound 0.1 µM, first compound 1 µM
# [5] = second compound 0.1 µM, first compound 3.16 µM
# [6] = second compound 0.1 µM, first compound 10 µM
# [7] = second compound 0.316 µM, first compound 0.0316 µM
# [8] = second compound 0.316 µM, first compound 0.1 µM
# [9] = second compound 0.316 µM, first compound 0.316 µM
# [10] = second compound 0.316 µM, first compound 1 µM
# [11] = second compound 0.316 µM, first compound 3.16 µM
# [12] = second compound 0.316 µM, first compound 10 µM
# [13] = second compound 1 µM, first compound 0.0316 µM
# [14] = second compound 1 µM, first compound 0.1 µM
# [15] = second compound 1 µM, first compound 0.316 µM
# [16] = second compound 1 µM, first compound 1 µM
# [17] = second compound 1 µM, first compound 3.16 µM
# [18] = second compound 1 µM, first compound 10 µM
# [19] = second compound 3.16 µM, first compound 0.0316 µM
# [20] = second compound 3.16 µM, first compound 0.1 µM
# [21] = second compound 3.16 µM, first compound 0.316 µM
# [22] = second compound 3.16 µM, first compound 1 µM
# [23] = second compound 3.16 µM, first compound 3.16 µM
# [24] = second compound 3.16 µM, first compound 10 µM
# [25] = second compound 10 µM, first compound 0.0316 µM
# [26] = second compound 10 µM, first compound 0.1 µM
# [27] = second compound 10 µM, first compound 0.316 µM
# [28] = second compound 10 µM, first compound 1 µM
# [29] = second compound 10 µM, first compound 3.16 µM
# [30] = second compound 10 µM, first compound 10 µM
# 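For viability, T/C in this document: compound exposure lasted 7 days; 100% = DMSO vehicle control growth.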
structure (smiles),measurement,setting,value
CC(C)CC(NC(=O)C(Cc1ccccc1)NC(=O)c1cnccn1)B(O)O (stereo not given) + Cc1cncc(-c2nc(NCCc3c[nH]c4ccccc34)c3ncn(C(C)C)c3n2)c1,IC50,second compound 0.1 µM,5.84 nM
same,IC50,second compound 0.316 µM,5.98 nM
same,IC50,second compound 1 µM,6.08 nM
same,IC50,second compound 3.16 µM,5.93 nM
same,IC50,second compound 10 µM,5.16 nM
same,"viability, T/C","second compound 0.1 µM, first compound 0.000949 µM",96.7%
same,"viability, T/C","second compound 0.1 µM, first compound 0.003 µM",103%
same,"viability, T/C","second compound 0.1 µM, first compound 0.00949 µM",13.8%
same,"viability, T/C","second compound 0.1 µM, first compound 0.03 µM",0.14%
same,"viability, T/C","second compound 0.1 µM, first compound 0.0949 µM",0.08%
same,"viability, T/C","second compound 0.1 µM, first compound 0.3 µM",0.23%
same,"viability, T/C","second compound 0.316 µM, first compound 0.000949 µM",101%
same,"viability, T/C","second compound 0.316 µM, first compound 0.003 µM",113%
same,"viability, T/C","second compound 0.316 µM, first compound 0.00949 µM",12%
same,"viability, T/C","second compound 0.316 µM, first compound 0.03 µM",1.1%
same,"viability, T/C","second compound 0.316 µM, first compound 0.0949 µM",0.12%
same,"viability, T/C","second compound 0.316 µM, first compound 0.3 µM",1.12%
same,"viability, T/C","second compound 1 µM, first compound 0.000949 µM",106%
same,"viability, T/C","second compound 1 µM, first compound 0.003 µM",110%
same,"viability, T/C","second compound 1 µM, first compound 0.00949 µM",13.4%
same,"viability, T/C","second compound 1 µM, first compound 0.03 µM",0.14%
same,"viability, T/C","second compound 1 µM, first compound 0.0949 µM",0.09%
same,"viability, T/C","second compound 1 µM, first compound 0.3 µM",0.67%
same,"viability, T/C","second compound 3.16 µM, first compound 0.000949 µM",103%
same,"viability, T/C","second compound 3.16 µM, first compound 0.003 µM",105%
same,"viability, T/C","second compound 3.16 µM, first compound 0.00949 µM",12.7%
same,"viability, T/C","second compound 3.16 µM, first compound 0.03 µM",1.05%
same,"viability, T/C","second compound 3.16 µM, first compound 0.0949 µM",0.7%
same,"viability, T/C","second compound 3.16 µM, first compound 0.3 µM",2.06%
same,"viability, T/C","second compound 10 µM, first compound 0.000949 µM",89.9%
same,"viability, T/C","second compound 10 µM, first compound 0.003 µM",87.8%
same,"viability, T/C","second compound 10 µM, first compound 0.00949 µM",7.45%
same,"viability, T/C","second compound 10 µM, first compound 0.03 µM",0.99%
same,"viability, T/C","second compound 10 µM, first compound 0.0949 µM",0.21%
same,"viability, T/C","second compound 10 µM, first compound 0.3 µM",1.28%
COc1cc(Nc2ncc3c(n2)-c2ccc(Cl)cc2C(c2c(F)cccc2OC)=NC3)ccc1C(=O)O + Cc1cncc(-c2nc(NCCc3c[nH]c4ccccc34)c3ncn(C(C)C)c3n2)c1,IC50,second compound 0.1 µM,> 10000 nM
same,IC50,second compound 0.316 µM,> 10000 nM
same,IC50,second compound 1 µM,> 10000 nM
same,IC50,second compound 3.16 µM,> 10000 nM
same,IC50,second compound 10 µM,> 10000 nM
same,"viability, T/C",[1],97.2%
same,"viability, T/C",[2],83.4%
same,"viability, T/C",[3],79.5%
same,"viability, T/C",[4],71.2%
same,"viability, T/C",[5],71.1%
same,"viability, T/C",[6],58.4%
same,"viability, T/C",[7],91.5%
same,"viability, T/C",[8],87.9%
same,"viability, T/C",[9],72.5%
same,"viability, T/C",[10],76.8%
same,"viability, T/C",[11],62.1%
same,"viability, T/C",[12],62.3%
same,"viability, T/C",[13],84.9%
same,"viability, T/C",[14],81.9%
same,"viability, T/C",[15],78.7%
same,"viability, T/C",[16],72.6%
same,"viability, T/C",[17],67.8%
same,"viability, T/C",[18],65.9%
same,"viability, T/C",[19],86.2%
same,"viability, T/C",[20],76.9%
same,"viability, T/C",[21],77.2%
same,"viability, T/C",[22],73.2%
same,"viability, T/C",[23],72.8%
same,"viability, T/C",[24],65.9%
same,"viability, T/C",[25],89.4%
same,"viability, T/C",[26],74.1%
same,"viability, T/C",[27],78.1%
same,"viability, T/C",[28],70.7%
same,"viability, T/C",[29],71%
same,"viability, T/C",[30],75.2%
Cn1ncnc1C1c2n[nH]c(=O)c3cc(F)cc(c23)NC1c1ccc(F)cc1 (stereo not given) + Cc1cncc(-c2nc(NCCc3c[nH]c4ccccc34)c3ncn(C(C)C)c3n2)c1,IC50,second compound 0.1 µM,> 100 nM
same,IC50,second compound 0.316 µM,> 100 nM
same,IC50,second compound 1 µM,> 100 nM
same,IC50,second compound 3.16 µM,> 100 nM
same,IC50,second compound 10 µM,> 100 nM
same,"viability, T/C","second compound 0.1 µM, first compound 0.000316 µM",105%
same,"viability, T/C","second compound 0.1 µM, first compound 0.001 µM",102%
same,"viability, T/C","second compound 0.1 µM, first compound 0.00316 µM",95.1%
same,"viability, T/C","second compound 0.1 µM, first compound 0.01 µM",110%
same,"viability, T/C",[1],92.4%
same,"viability, T/C",[2],90.3%
same,"viability, T/C","second compound 0.316 µM, first compound 0.000316 µM",99.2%
same,"viability, T/C","second compound 0.316 µM, first compound 0.001 µM",99.3%
same,"viability, T/C","second compound 0.316 µM, first compound 0.00316 µM",101%
same,"viability, T/C","second compound 0.316 µM, first compound 0.01 µM",89.8%
same,"viability, T/C",[7],86.9%
same,"viability, T/C",[8],86.6%
same,"viability, T/C","second compound 1 µM, first compound 0.000316 µM",96.1%
same,"viability, T/C","second compound 1 µM, first compound 0.001 µM",104%
same,"viability, T/C","second compound 1 µM, first compound 0.00316 µM",102%
same,"viability, T/C","second compound 1 µM, first compound 0.01 µM",102%
same,"viability, T/C",[13],103%
same,"viability, T/C",[14],98.6%
same,"viability, T/C","second compound 3.16 µM, first compound 0.000316 µM",90.6%
same,"viability, T/C","second compound 3.16 µM, first compound 0.001 µM",107%
same,"viability, T/C","second compound 3.16 µM, first compound 0.00316 µM",97.7%
same,"viability, T/C","second compound 3.16 µM, first compound 0.01 µM",91.8%
same,"viability, T/C",[19],85.2%
same,"viability, T/C",[20],101%
same,"viability, T/C","second compound 10 µM, first compound 0.000316 µM",87.2%
same,"viability, T/C","second compound 10 µM, first compound 0.001 µM",83.4%
same,"viability, T/C","second compound 10 µM, first compound 0.00316 µM",92%
same,"viability, T/C","second compound 10 µM, first compound 0.01 µM",85.7%
same,"viability, T/C",[25],89.9%
same,"viability, T/C",[26],79.1%
NS(=O)(=O)OCC1CC(n2ccc3c(NC4CCc5ccccc54)ncnc32)CC1O (stereo not given) + Cc1cncc(-c2nc(NCCc3c[nH]c4ccccc34)c3ncn(C(C)C)c3n2)c1,IC50,second compound 0.1 µM,> 10000 nM
same,IC50,second compound 0.316 µM,> 10000 nM
same,IC50,second compound 1 µM,> 10000 nM
same,IC50,second compound 3.16 µM,> 10000 nM
same,IC50,second compound 10 µM,2670 nM
same,"viability, T/C",[1],109%
same,"viability, T/C",[2],102%
same,"viability, T/C",[3],95.9%
same,"viability, T/C",[4],90.5%
same,"viability, T/C",[5],81.1%
same,"viability, T/C",[6],62.5%
same,"viability, T/C",[7],98.1%
same,"viability, T/C",[8],104%
same,"viability, T/C",[9],92.7%
same,"viability, T/C",[10],85.8%
same,"viability, T/C",[11],72.7%
same,"viability, T/C",[12],62.2%
same,"viability, T/C",[13],112%
same,"viability, T/C",[14],120%
same,"viability, T/C",[15],87.7%
same,"viability, T/C",[16],81.6%
same,"viability, T/C",[17],74%
same,"viability, T/C",[18],63.8%
same,"viability, T/C",[19],99.9%
same,"viability, T/C",[20],119%
same,"viability, T/C",[21],96.4%
same,"viability, T/C",[22],84.8%
same,"viability, T/C",[23],70.5%
same,"viability, T/C",[24],49.5%
same,"viability, T/C",[25],87.8%
same,"viability, T/C",[26],95.5%
same,"viability, T/C",[27],71.9%
same,"viability, T/C",[28],71%
same,"viability, T/C",[29],45.6%
same,"viability, T/C",[30],27.6%
O=C(C=Cc1cccc(S(=O)(=O)Nc2ccccc2)c1)NO + Cc1cncc(-c2nc(NCCc3c[nH]c4ccccc34)c3ncn(C(C)C)c3n2)c1,IC50,second compound 0.1 µM,1480 nM
same,IC50,second compound 0.316 µM,1680 nM
same,IC50,second compound 1 µM,1420 nM
same,IC50,second compound 3.16 µM,1460 nM
same,IC50,second compound 10 µM,938 nM
same,"viability, T/C",[1],106%
same,"viability, T/C",[2],118%
same,"viability, T/C",[3],90.2%
same,"viability, T/C",[4],58%
same,"viability, T/C",[5],32%
same,"viability, T/C",[6],3.96%
same,"viability, T/C",[7],102%
same,"viability, T/C",[8],104%
same,"viability, T/C",[9],87.3%
same,"viability, T/C",[10],69.6%
same,"viability, T/C",[11],27.9%
same,"viability, T/C",[12],3.92%
same,"viability, T/C",[13],111%
same,"viability, T/C",[14],114%
same,"viability, T/C",[15],82.2%
same,"viability, T/C",[16],60.9%
same,"viability, T/C",[17],28.9%
same,"viability, T/C",[18],5.09%
same,"viability, T/C",[19],108%
same,"viability, T/C",[20],101%
same,"viability, T/C",[21],87%
same,"viability, T/C",[22],62.5%
same,"viability, T/C",[23],26.9%
same,"viability, T/C",[24],6.45%
same,"viability, T/C",[25],92.2%
same,"viability, T/C",[26],88.8%
same,"viability, T/C",[27],80.1%
same,"viability, T/C",[28],43.5%
same,"viability, T/C",[29],24.8%
same,"viability, T/C",[30],4.13%

# — PubChem BioAssay AID1918999 (Molecular Pharmacology Branch, DTP, NCI, 2023)
